Results from publication PMC11714206, “Massively Parallel Screening of Toll/Interleukin‐1 Receptor (TIR)‐Derived Peptides Reveals Multiple Toll‐Like Receptors (TLRs)‐Targeting Immunomodulatory Peptides” (Advanced Science, 2024).

Target: T1, MyD88^TIR (Homo sapiens, UniProt Q99836)
T1 construct: MyD88 (residues 148–296); 6xHis; made in house; host or cells: E. coli BL21 (DE3)
Experiment: T‐Surf phage library (P8 and P3) selection against MyD88^TIR, four rounds, NGS read counts
Format: binding
Conditions: for P8_MyD88 Rank (after) / P8_MyD88 Rank (before): P8 library; for Population: P8_MyD88 pool: P8 T-Surf phage library, 4th round of selection against MyD88 TIR, share of NGS reads; for P3_MyD88 Rank (after) / P3_MyD88 Rank (before): P3 library
In short: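 P8 and P3 T‐Surf libraries panned against plate-coated TIR domains (5 µg mL^−1), 1 h binding at RT, acid elution and TG1/helper-phage amplification per round. After four rounds, pools were PCR-barcoded and sequenced (NovaSeq, 100 bp paired-end, Phred ≥30); peptides ranked by read counts.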

[1] = P3_MyD88: rank by count after grouping
[2] = P3_MyD88: rank by count before grouping
[3] = P8_MyD88: rank by NGS read count after grouping
[4] = P8_MyD88: rank by NGS read count before grouping
[5] = selection against MyD88, rank by count after grouping
[6] = selection against MyD88, rank by count before grouping
[7] = selection against MyD88 TIR, rank by count after grouping
[8] = selection against MyD88 TIR, rank by count before grouping
[9] = selection against MyD88, rank after grouping
[10] = selection against MyD88, rank before grouping
[11] = P8_MyD88: rank by count after grouping
[12] = P8_MyD88: rank by count before grouping
[13] = 4R selection against MyD88, rank after grouping
[14] = 4R selection against MyD88, rank before grouping

T1 sequence (Q99836 148-296): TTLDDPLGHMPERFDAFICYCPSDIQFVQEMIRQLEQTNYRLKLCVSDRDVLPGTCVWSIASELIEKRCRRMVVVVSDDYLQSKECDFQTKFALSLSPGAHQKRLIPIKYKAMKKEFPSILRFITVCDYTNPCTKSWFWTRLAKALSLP

YTAMTNSGFHTFRGND
Rank (after) [1]: 429
Rank (before) [2]: 1711

ISYRQGRWRLLELSKK
Rank (after) [1]: 461
Rank (before) [2]: 2919

DPQDLECFYERRVSLF
Rank (after) [3]: 916
Rank (before) [4]: 2845

NELVHEISKKMKIFATI
Rank (after) [1]: 398
Rank (before) [2]: 3443

SGQAVTEDKLGWLSNP
P8_MyD88 Rank (after) [5]: 682
P8_MyD88 Rank (before) [6]: 1660

PYLLWVFDDEDGQELF
P8_MyD88 Rank (after) [7]: 199
P8_MyD88 Rank (before) [8]: 291

YELDFSHFWLFDGQAGGEA
P8_MyD88 Rank (after) [7]: 284
P8_MyD88 Rank (before) [8]: 664

LKWGEPYCWSKLRYAM
Rank (after) [1]: 127
Rank (before) [2]: 2450

LVAHQISKTIKIFATI
Rank (after) [1]: 389
Rank (before) [2]: 2314

WALDEVLKIQDDNETM
P8_MyD88 Rank (after) [9]: 544
P8_MyD88 Rank (before) [10]: 1423

EPQDLDWFYERLVSLL
Rank (after) [11]: 94
Rank (before) [12]: 478

FISDLYEALTRAGILA
Rank (after) [3]: 964
Rank (before) [4]: 1341

DSQVLDWFYERLVSLL
Rank (after) [3]: 982
Rank (before) [4]: 2496

DPQVPEWFYNRLFCQL
Rank (after) [3]: 959
Rank (before) [4]: 2651

YASYDDNDYYWVTPVLLRLV
Rank (after) [11]: 435
Rank (before) [12]: 1767

DPQDLDWFYERLVAC
Rank (after) [3]: 1005
Rank (before) [4]: 2779

SSAWALNELVQIMKAW
Rank (after) [11]: 399
Rank (before) [12]: 1289

SEDTRNNFLYHLYEAL
Rank (after) [11]: 100
Rank (before) [12]: 106
Population: 0.022%

DPQDQEWLYERLFSQM
P8_MyD88 Rank (after) [13]: 619
P8_MyD88 Rank (before) [14]: 2971

DPPVLEWFYESLFSQM
P8_MyD88 Rank (after) [13]: 601
P8_MyD88 Rank (before) [14]: 2624

YNFISHLYDALRLNKIAPF
P3_MyD88 Rank (after) [13]: 634
P3_MyD88 Rank (before) [14]: 1728

DPHDPQWFYERLVRLI
P8_MyD88 Rank (after) [9]: 495
P8_MyD88 Rank (before) [10]: 3035

AWIWGWREALVYIGGI
P8_MyD88 Rank (after) [7]: 254
P8_MyD88 Rank (before) [8]: 448

NFVEYFVYQMMPDILE
Rank (after) [11]: 153
Rank (before) [12]: 167
Population: 0.00886%

NGHESEIITVIVDTIV
P3_MyD88 Rank (after) [7]: 221
P3_MyD88 Rank (before) [8]: 3351

DPQDLDWFYERLVNLL
Rank (after) [11]: 98
Rank (before) [12]: 349

NQWRHALTAEANLSGW
Rank (after) [1]: 408
Rank (before) [2]: 3472

DFLNWFIAPNSTVIEN
Rank (after) [11]: 457
Rank (before) [12]: 2364

WILRAIWNSFGIVCI
Rank (after) [11]: 475
Rank (before) [12]: 1653

YLQDLDWFYERLVSLF
Rank (after) [11]: 478
Rank (before) [12]: 2080

DPQLLVCFYERLVSLF
P8_MyD88 Rank (after) [13]: 640
P8_MyD88 Rank (before) [14]: 3023

DPQDLDWLYERLVRLF
P8_MyD88 Rank (after) [7]: 238
P8_MyD88 Rank (before) [8]: 2828

DPQGLVWLYERLFSQI
Rank (after) [3]: 918
Rank (before) [4]: 2663

SEKYAKSPWAKVGLVL
P3_MyD88 Rank (after) [9]: 548
P3_MyD88 Rank (before) [10]: 3001

GRYEELFMTETDERLP
P3_MyD88 Rank (after) [5]: 735
P3_MyD88 Rank (before) [6]: 1853

LKVEAGVRRWKKRAN
Rank (after) [1]: 114
Rank (before) [2]: 1074

WDFASKMEQFLDRLYY
Rank (after) [3]: 893
Rank (before) [4]: 1632

YRKWGYLRIWDRWRFA
Rank (after) [1]: 411
Rank (before) [2]: 1613
